Reference: patent EP0947820A2, “Method for sample preparation” (Evotec BioSystems GmbH, priority 1998, dated 1999)

Target: HIV Reverse Transcriptase (HIV-RT) (Human immunodeficiency virus type 1 group M subtype B, UniProt P04585)
Assay: primer extension assay using HIV Reverse Transcriptase after dry-storage of the inhibitor, read out by FCS
Assay type: biochemical
Details: stored in a desiccator overnight at room-temperature, reaction 40°C, 2 min
Protocol: The method, according to claim 1 was used for a primer extension assay using HIV Reverse Transcriptase (HIV-RT). Precoating the assay plate: 1 µl aliquots of 0.1% (w/v) aqueous solution of HBC (2-hydroxypropyl-β-cyclodextrin) was pipetted into the wells of a nanotiter plate and subjected to a flow of nitrogen gas until all the solvent (water) was evaporated. […] As a control, a section of the nanotiter plate was not coated with HBC. The plate was subsequently loaded with 1 µl (1 mg/ml) of the HIV Reverse Transcriptase Inhibitor AZT (3'Azido-3'deoxythymidine) contained in 50 mM DMSO/ 10 mM NaCl. The solvent (DMSO/water) evaporated by exposure to a flow of nitrogen gas at room-temperature. As a control, some wells of the nanotiter plate (coated and non-coated) were not charged with AZT. The plates were stored in a desiocator overnight at room-temperature.
The primer extension assay was performed by pipetting 900 nanoliter of a reaction mix containing: 2 pmol TMR-lablled 20 base oligo deoxynucleotide anneald to a 200 base RNA-template (gag region of the HIV genome), 50 mM Tris-HCl pH 8.2, dissolved, 50 mM NaCl, 1 mM of each dNTP. The nanotiter plate was incubated at 40°C for 2 min and the extension reaction stopped by the addition of 100 nanoliter 0.5 M EDTA. The primer extension products were analyzed by FCS.
• 1. […]

Cc1cn([C@H]2C[C@H](N=[N+]=[N-])[C@@H](CO)O2)c(=O)[nH]c1=O [AZT, 3'Azido-3'deoxythymidine]
Primer extension (AZT 1 µl (1 mg/ml) dried in nanotiter plate wells not coated with HBC): only partially inhibited | Primer extension (AZT 1 µl (1 mg/ml) dried in nanotiter plate wells precoated with HBC (1 µl of 0.1% w/v)): inhibited
